Data: ChEMBL document CHEMBL1201861, “Genomics of Drug Sensitity in Cancer screening data, Wellcome Trust Sanger Institute”

Key:
Assay in all cases: cells
[1] = test system: COR-L23; assay type: functional, cell-based; conditions: Homo sapiens;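 note: cell viability assay measuring how strongly compounds suppress growth of COR-L23 cells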
Description: SANGER: Inhibition of human COR-L23 cell growth in a cell viability assay.

[2] = test system: G-402; assay type: functional, cell-based; conditions: Homo sapiens
Description: SANGER: Inhibition of human G-402 cell growth in a cell viability assay.

[3] = test system: GP5d; assay type: functional, cell-based; conditions: Homo sapiens;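 note: growth inhibition of human GP5d cells, read out with a cell viability assay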
Description: SANGER: Inhibition of human GP5d cell growth in a cell viability assay.

[4] = test system: HCC1569; assay type: functional, cell-based; conditions: Homo sapiens;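 note: growth inhibition of human HCC1569 cells, read out with a cell viability assay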
Description: SANGER: Inhibition of human HCC1569 cell growth in a cell viability assay.

[5] = test system: HEC-1; assay type: functional, cell-based; conditions: Homo sapiens;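 note: growth inhibition of the cell line, read out with a cell viability assay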
Description: SANGER: Inhibition of human HEC-1 cell growth in a cell viability assay.

[6] = test system: HSC-3; assay type: functional, cell-based; conditions: Homo sapiens
Description: SANGER: Inhibition of human HSC-3 cell growth in a cell viability assay.

[7] = test system: HT-1376; assay type: functional, cell-based; conditions: Homo sapiens
Description: SANGER: Inhibition of human HT-1376 cell growth in a cell viability assay.

[8] = test system: HuO9; assay type: functional, cell-based; conditions: Homo sapiens;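 note: growth inhibition of HuO9 cells, read out with a cell viability assay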
Description: SANGER: Inhibition of human HuO9 cell growth in a cell viability assay.

[9] = test system: IGROV-1; assay type: functional, cell-based; conditions: Homo sapiens;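 note: reduction of IGROV-1 cell growth, read out with a viability assay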
Description: SANGER: Inhibition of human IGROV-1 cell growth in a cell viability assay.

[10] = test system: JEG-3; assay type: functional, cell-based; conditions: Homo sapiens;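 note: growth inhibition of human JEG-3 cells, read out with a cell viability assay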
Description: SANGER: Inhibition of human JEG-3 cell growth in a cell viability assay.

[11] = test system: KYSE-410; assay type: functional, cell-based; conditions: Homo sapiens;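 note: growth inhibition of KYSE-410 cells, measured through a cell viability readout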
Description: SANGER: Inhibition of human KYSE-410 cell growth in a cell viability assay.

[12] = test system: KYSE-520 cell line; assay type: functional, cell-based; conditions: Homo sapiens;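 note: growth inhibition of human KYSE-520 cells, read out with a viability assay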
Description: SANGER: Inhibition of human KYSE-520 cell growth in a cell viability assay.

[13] = test system: LB996-RCC; assay type: functional, cell-based; conditions: Homo sapiens
Description: SANGER: Inhibition of human LB996-RCC cell growth in a cell viability assay.

[14] = test system: LK-2; assay type: functional, cell-based; conditions: Homo sapiens;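 note: growth inhibition of LK-2 cells, read out with a viability assay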
Description: SANGER: Inhibition of human LK-2 cell growth in a cell viability assay.

[15] = test system: LN-405; assay type: functional, cell-based; conditions: Homo sapiens
Description: SANGER: Inhibition of human LN-405 cell growth in a cell viability assay.

[16] = test system: LU-99A; assay type: functional, cell-based; conditions: Homo sapiens;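 note: growth inhibition of LU-99A cells, read out with a cell viability assay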
Description: SANGER: Inhibition of human LU-99A cell growth in a cell viability assay.

[17] = test system: M14; assay type: functional, cell-based; conditions: Homo sapiens;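 note: growth inhibition of M14 cells, read out with a cell viability assay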
Description: SANGER: Inhibition of human M14 cell growth in a cell viability assay.

[18] = test system: MCF7; assay type: functional, cell-based; conditions: Homo sapiens;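 note: growth inhibition of human MCF7 cells, read out with a cell viability assay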
Description: SANGER: Inhibition of human MCF7 cell growth in a cell viability assay.

[19] = test system: MKN-28; assay type: functional, cell-based; conditions: Homo sapiens;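 note: cell viability assay read-out, IC50 reflects suppression of growth of human MKN-28 cells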
Description: SANGER: Inhibition of human MKN28 cell growth in a cell viability assay.

[20] = test system: NCI-H1437; assay type: functional, cell-based; conditions: Homo sapiens;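 note: growth inhibition of human NCI-H1437 cells, read out by a cell viability assay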
Description: SANGER: Inhibition of human NCI-H1437 cell growth in a cell viability assay.

[21] = test system: NCI-H2342; assay type: functional, cell-based; conditions: Homo sapiens;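 note: growth inhibition of the cancer cell line, determined with a cell viability assay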
Description: SANGER: Inhibition of human NCI-H2342 cell growth in a cell viability assay.

[22] = test system: NCI-H28; assay type: functional, cell-based; conditions: Homo sapiens;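 note: growth inhibition of human NCI-H28 cells, read out as cell viability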
Description: SANGER: Inhibition of human NCI-H28 cell growth in a cell viability assay.

[23] = test system: NCI-H441; assay type: functional, cell-based; conditions: Homo sapiens;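 note: growth inhibition of NCI-H441 cells, read out with a cell viability assay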
Description: SANGER: Inhibition of human NCI-H441 cell growth in a cell viability assay.

[24] = test system: NCI-H661; assay type: functional, cell-based; conditions: Homo sapiens;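 note: cell viability assay read-out, IC50 being the concentration that inhibits growth of the cells by half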
Description: SANGER: Inhibition of human NCI-H661 cell growth in a cell viability assay.

[25] = test system: OVCAR-3; assay type: functional, cell-based; conditions: Homo sapiens;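 note: growth inhibition of human OVCAR-3 cells, determined by a cell viability assay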
Description: SANGER: Inhibition of human OVCAR-3 cell growth in a cell viability assay.

[26] = test system: PA-1; assay type: functional, cell-based; conditions: Homo sapiens;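 note: IC50 for suppression of PA-1 cell proliferation, determined with a cell viability read-out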
Description: SANGER: Inhibition of human PA-1 cell growth in a cell viability assay.

[27] = test system: PANC-03-27; assay type: functional, cell-based; conditions: Homo sapiens
Description: SANGER: Inhibition of human PANC-03-27 cell growth in a cell viability assay.

[28] = test system: PC-14; assay type: functional, cell-based; conditions: Homo sapiens;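 note: cell viability assay measuring inhibition of PC-14 cell growth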
Description: SANGER: Inhibition of human PC-14 cell growth in a cell viability assay.

[29] = test system: PC-3; assay type: functional, cell-based; conditions: Homo sapiens;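 note: cell viability assay measuring growth inhibition of PC-3 cells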
Description: SANGER: Inhibition of human PC-3 cell growth in a cell viability assay.

[30] = test system: RPMI-2650; assay type: functional, cell-based; conditions: Homo sapiens
Description: SANGER: Inhibition of human RPMI-2650 cell growth in a cell viability assay.

[31] = test system: S-117; assay type: functional, cell-based; conditions: Homo sapiens
Description: SANGER: Inhibition of human S-117 cell growth in a cell viability assay.

[32] = test system: SAS; assay type: functional, cell-based; conditions: Homo sapiens;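 note: growth inhibition of SAS cells, read out with a cell viability assay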
Description: SANGER: Inhibition of human SAS cell growth in a cell viability assay.

[33] = test system: SCC-4; assay type: functional, cell-based; conditions: Homo sapiens;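 note: growth inhibition of human SCC-4 cells, read out as cell viability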
Description: SANGER: Inhibition of human SCC-4 cell growth in a cell viability assay.

[34] = test system: SK-LU-1; assay type: functional, cell-based; conditions: Homo sapiens;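 note: cell viability assay measuring growth inhibition of human SK-LU-1 cells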
Description: SANGER: Inhibition of human SK-LU-1 cell growth in a cell viability assay.

[35] = test system: SK-MEL-28; assay type: functional, cell-based; conditions: Homo sapiens;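 note: growth inhibition of human SK-MEL-28 cells, read out with a cell viability assay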
Description: SANGER: Inhibition of human SK-MEL-28 cell growth in a cell viability assay.

[36] = test system: SK-MEL3; assay type: functional, cell-based, SK-MEL-3; conditions: Homo sapiens;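 note: growth inhibition of human SK-MEL-3 cells, read out with a cell viability assay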
Description: SANGER: Inhibition of human SK-MEL-3 cell growth in a cell viability assay.

[37] = test system: SW1990; assay type: functional, cell-based; conditions: Homo sapiens;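 note: cell growth inhibition determined with a viability assay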
Description: SANGER: Inhibition of human SW1990 cell growth in a cell viability assay.

[38] = test system: SW626; assay type: functional, cell-based; conditions: Homo sapiens;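 note: growth inhibition of SW626 cells, measured with a cell viability assay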
Description: SANGER: Inhibition of human SW626 cell growth in a cell viability assay.

[39] = test system: SW780; assay type: functional, cell-based; conditions: Homo sapiens;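 note: growth inhibition of the cells, read out with a cell viability assay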
Description: SANGER: Inhibition of human SW780 cell growth in a cell viability assay.

[40] = test system: SAOS-2; assay type: functional, cell-based; conditions: Homo sapiens;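 note: growth inhibition of human Saos-2 cells determined by a cell viability assay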
Description: SANGER: Inhibition of human Saos-2 cell growth in a cell viability assay.

[41] = test system: 5637; assay type: functional, cell-based; conditions: Homo sapiens
Description: SANGER: Inhibition of human 5637 cell growth in a cell viability assay.

[42] = test system: 639-V; assay type: functional, cell-based; conditions: Homo sapiens;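 note: growth inhibition of 639-V cells, read out with a cell viability assay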
Description: SANGER: Inhibition of human 639-V cell growth in a cell viability assay.

[43] = test system: 647-V; assay type: functional, cell-based; conditions: Homo sapiens;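 note: growth inhibition of 647-V cells, read out with a cell viability assay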
Description: SANGER: Inhibition of human 647-V cell growth in a cell viability assay.

[44] = test system: 8505C; assay type: functional, cell-based; conditions: Homo sapiens
Description: SANGER: Inhibition of human 8505C cell growth in a cell viability assay.

[45] = test system: A-375; assay type: functional, cell-based; conditions: Homo sapiens;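 note: growth inhibition of A375 cells, read out with a cell viability assay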
Description: SANGER: Inhibition of human A375 cell growth in a cell viability assay.

[46] = test system: ACHN; assay type: functional, cell-based; conditions: Homo sapiens;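 note: cell viability read-out used to gauge how strongly growth of human ACHN cells is suppressed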
Description: SANGER: Inhibition of human ACHN cell growth in a cell viability assay.

[47] = test system: CAL-12T; assay type: functional, cell-based, Homo sapiens;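 note: growth inhibition of human CAL-12T cells, read out with a cell viability assay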
Description: SANGER: Inhibition of human CAL-12T cell growth in a cell viability assay.

[48] = test system: CAMA-1; assay type: functional, cell-based; conditions: Homo sapiens;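 note: growth inhibition of CAMA-1 cells, read out with a cell viability assay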
Description: SANGER: Inhibition of human CAMA-1 cell growth in a cell viability assay.

[49] = test system: CHL-1; assay type: functional, cell-based; conditions: Homo sapiens;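 note: cell growth inhibition, read out with a cell viability assay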
Description: SANGER: Inhibition of human CHL-1 cell growth in a cell viability assay.

[50] = test system: COLO-678; assay type: functional, cell-based; conditions: Homo sapiens
Description: SANGER: Inhibition of human COLO-678 cell growth in a cell viability assay.

[51] = test system: COLO-680N; assay type: functional, cell-based; conditions: Homo sapiens;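 note: cell viability assay used to measure inhibition of COLO-680N cell growth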
Description: SANGER: Inhibition of human COLO-680N cell growth in a cell viability assay.

O=c1cc(N2CCOCC2)oc2c(-c3cccc4c3sc3ccccc34)cccc12
IC50 [1]: > 2 µM
IC50 [2]: > 2 µM
IC50 [3]: > 2 µM
IC50 [4]: > 2 µM
IC50 [5]: > 2 µM
IC50 [6]: > 2 µM
IC50 [7]: > 2 µM
IC50 [8]: > 2 µM
IC50 [9]: > 2 µM
IC50 [10]: > 2 µM
IC50 [11]: > 2 µM
IC50 [12]: > 2 µM
IC50 [13]: > 2 µM
IC50 [14]: > 2 µM
IC50 [15]: > 2 µM
IC50 [16]: > 2 µM
IC50 [17]: > 2 µM
IC50 [18]: > 2 µM
IC50 [19]: > 2 µM
IC50 [20]: > 2 µM
IC50 [21]: > 2 µM
IC50 [22]: > 2 µM
IC50 [23]: > 2 µM
IC50 [24]: > 2 µM
IC50 [25]: > 2 µM
IC50 [26]: 1.58 µM
IC50 [27]: > 2 µM
IC50 [28]: > 2 µM
IC50 [29]: > 2 µM
IC50 [30]: > 2 µM
IC50 [31]: > 2 µM
IC50 [32]: > 2 µM
IC50 [33]: > 2 µM
IC50 [34]: > 2 µM
IC50 [35]: > 2 µM
IC50 [36]: > 2 µM
IC50 [37]: > 2 µM
IC50 [38]: > 2 µM
IC50 [39]: > 2 µM
IC50 [40]: > 2 µM
IC50 [41]: > 2 µM
IC50 [42]: 1.44 µM
IC50 [43]: > 2 µM
IC50 [44]: > 2 µM
IC50 [45]: > 2 µM
IC50 [46]: > 2 µM
IC50 ([47]; cal-12t): > 2 µM
IC50 [48]: > 2 µM
IC50 [49]: 1.21 µM
IC50 [50]: > 2 µM
IC50 [51]: > 2 µM

NC(=O)c1ncn([C@@H]2O[C@H](COP(=O)(O)O)[C@@H](O)[C@H]2O)c1N
IC50 [1]: 728 µM
IC50 [2]: 1320 µM
IC50 [3]: 1770 µM
IC50 [4]: 994 µM
IC50 [5]: > 2000 µM
IC50 [6]: 259 µM
IC50 [7]: > 2000 µM
IC50 [8]: 1970 µM
IC50 [9]: > 2000 µM
IC50 [10]: 1440 µM
IC50 [11]: > 2000 µM
IC50 [12]: 382 µM
IC50 [14]: > 2000 µM
IC50 [15]: > 2000 µM
IC50 [16]: > 2000 µM
IC50 [17]: 295 µM
IC50 [18]: 901 µM
IC50 [19]: > 2000 µM
IC50 [20]: 599 µM
IC50 [21]: > 2000 µM
IC50 [22]: 1040 µM
IC50 [23]: > 2000 µM
IC50 [24]: > 2000 µM
IC50 [25]: > 2000 µM
IC50 [26]: 856 µM
IC50 [27]: > 2000 µM
IC50 [28]: 379 µM
IC50 [29]: 349 µM
IC50 [31]: > 2000 µM
IC50 [32]: 746 µM
IC50 [33]: 1230 µM
IC50 [34]: 1700 µM
IC50 [35]: > 2000 µM
IC50 [37]: 1120 µM
IC50 [38]: > 2000 µM
IC50 [39]: > 2000 µM
IC50 [40]: > 2000 µM
IC50 [41]: > 2000 µM
IC50 [42]: > 2000 µM
IC50 [43]: > 2000 µM
IC50 [44]: > 2000 µM
IC50 [45]: > 2000 µM
IC50 [46]: 1210 µM
IC50 ([47]; Homo sapiens, CAL-12T): 668 µM
IC50 [48]: 354 µM
IC50 [49]: > 2000 µM
IC50 [50]: > 2000 µM
IC50 [51]: > 2000 µM

CC(=O)c1c(C)c2cnc(Nc3ccc(N4CCNCC4)cn3)nc2n(C2CCCC2)c1=O [PALBOCICLIB]
IC50 [1]: 1.23 µM
IC50 [2]: > 4 µM
IC50 [3]: > 4 µM
IC50 [4]: > 4 µM
IC50 [5]: > 4 µM
IC50 [6]: 0.966 µM
IC50 [7]: > 4 µM
IC50 [8]: > 4 µM
IC50 [9]: > 4 µM
IC50 [10]: > 4 µM
IC50 [11]: > 4 µM
IC50 [12]: > 4 µM
IC50 [13]: > 4 µM
IC50 [14]: > 4 µM
IC50 [15]: > 4 µM
IC50 [16]: > 4 µM
IC50 [17]: > 4 µM
IC50 [18]: 2.71 µM
IC50 [20]: > 4 µM
IC50 [21]: > 4 µM
IC50 [22]: > 4 µM
IC50 [23]: 1.55 µM
IC50 [24]: > 4 µM
IC50 [25]: > 4 µM
IC50 [26]: 0.51 µM
IC50 [27]: > 4 µM
IC50 [28]: > 4 µM
IC50 [29]: 1.35 µM
IC50 [30]: > 4 µM
IC50 [31]: > 4 µM
IC50 [32]: 2.2 µM
IC50 [33]: > 4 µM
IC50 [34]: 1.62 µM
IC50 [36]: > 4 µM
IC50 [37]: > 4 µM
IC50 [38]: > 4 µM
IC50 [39]: 1.96 µM
IC50 [40]: > 4 µM
IC50 [41]: > 4 µM
IC50 [42]: > 4 µM
IC50 [43]: > 4 µM
IC50 [44]: > 4 µM
IC50 ([47]; Homo sapiens, CAL-12T): > 4 µM
IC50 [48]: 0.834 µM
IC50 [49]: > 4 µM
IC50 [50]: > 4 µM
IC50 [51]: > 4 µM
